Results on 20 compounds are retold here after patent US8455491B2, “6-cycloamino-3-(pyridazin-4-yl)imidazo[1,2-b]pyridazine and derivatives and pharmaceutical compositions comprising the same” (Sanofi, priority 2007, dated 2013).

Data set [1] concerns the target T1, casein kinase 1 epsilon (CK1 epsilon) (Homo sapiens, UniProt P49674).
T1 construct: Invitrogen Corporation (named as alternative)
As to the kind of experiment: Filter-plate assay of ATP-33P, inhibition of casein phosphorylation by CK1 epsilon. It is filed as biochemical. Particulars: casein substrate, ATP 10 μM, 2 hours at ambient temperature. The protocol: The capacity of the compounds of the invention to inhibit the phosphorylation of casein by casein kinase 1 epsilon and delta may be evaluated according to the procedure described in US 2005/0131012.
Filter-Plate Assay of ATP-^33P for the Screening of CK1 Epsilon Inhibitors:
The effect of the compounds on inhibition of the phosphorylation of casein by the enzyme casein kinase 1 epsilon (CK1 epsilon) is measured, using a casein assay with filtration of ATP-^33P in vitro.
Casein kinase 1 epsilon (0.58 mg/ml) is obtained via fermentation and purification processes performed according to methods that are well known to those skilled in the art, or may also be obtained from Invitrogen Corporation™ (human CK1 epsilon).
The compounds are tested at five different concentrations so as to generate IC50 values, i.e. the concentration at which a compound is capable of inhibiting the enzymatic activity by 50%, or alternatively the percentage of inhibition at a concentration of 10 micromolar.
“U”-bottomed Falcon plates are prepared by placing 5 μL of solutions of the compounds according to the invention at concentrations of 10, 1, 0.1, 0.01 or 0.001 μM in various wells. The solutions of the compounds according to the invention at these various concentrations are prepared by diluting in a test buffer (50 mM Tris, pH 7.5, […], 2 mM DTT and 1 mM EGTA) a stock solution in DMSO at a concentration of 10 mM. Next, 5 μL of dephosphorylated casein are added to a final concentration of 0.2 μg/μL, 20 μl of CK1 epsilon to a final concentration of 3 ng/μl, and 20 μl of ATP-^33P to a final concentration of 0.02 μCi/μl mixed with cold ATP (10 μM final—approximately 2×10^6 CPM per well). The final total test volume per well is equal to 50 μl.
The “U”-bottomed Falcon® test plate mentioned above is vortexed, and then incubated at ambient temperature for 2 hours. After 2 hours, the reaction is stopped by adding an ice-cold solution of 65 μl of ATP (2 mM) prepared in test buffer.
100 μl of the reaction mixture are then transferred from the “U”-bottomed Falcon® plate into Millipore® MAPH filter plates, preimpregnated with 25 μl of ice-cold 100% TCA. […]
The plates are left to dry overnight at ambient temperature. […] The radiation emitted by each well is then measured for 2 minutes in a Packard® Topcount NXT scintillation counter, in which the values of CPM/well are measured.
The percentage inhibition of the capacity of the enzyme to phosphorylate the substrate (casein) is determined for each concentration of compound tested. These inhibition data expressed as percentages are used to calculate the IC50 value for each compound compared with the controls.
The kinetic studies determined the KM value for ATP as being 21 μM in this test system.

T1 sequence (P49674 whole entry): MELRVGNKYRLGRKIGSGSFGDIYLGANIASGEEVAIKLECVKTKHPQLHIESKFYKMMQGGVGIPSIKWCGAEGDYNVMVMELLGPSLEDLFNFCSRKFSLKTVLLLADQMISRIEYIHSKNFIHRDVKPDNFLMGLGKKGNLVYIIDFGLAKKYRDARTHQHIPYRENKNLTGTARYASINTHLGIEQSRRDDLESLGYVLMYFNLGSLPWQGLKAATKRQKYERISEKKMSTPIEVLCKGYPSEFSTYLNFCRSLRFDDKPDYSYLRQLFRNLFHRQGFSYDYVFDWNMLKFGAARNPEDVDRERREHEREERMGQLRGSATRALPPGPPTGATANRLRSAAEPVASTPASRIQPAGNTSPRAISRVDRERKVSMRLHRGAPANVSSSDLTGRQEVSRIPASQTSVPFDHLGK

Consider `FCC1CN(c2ccc3nc(-c4ccc(F)cc4)c(-c4ccnnc4)n3n2)CCN1` (racemic) [compound 40, (+/−)-6-(3-fluoromethylpiperazin-1-yl)-2-(4-fluorophenyl)-3-pyridazin-4-ylimidazo[1,2-b]pyridazine], for which the melting point is 184 to 189 °C.

In turn, `CC1(C)CN(c2ccc3nc(-c4ccc(F)cc4)c(-c4ccnnc4)n3n2)CCN1` [Compound No. 3, 6-(3,3-dimethylpiperazin-1-yl)-2-(4-fluorophenyl)-3-pyridazin-4-yl-imidazo[1,2-b]pyridazine] registered a melting point of 226 to 228 °C.

In the case of `C[C@@H]1CN(c2ccc3nc(-c4ccc(F)cc4)c(-c4ccnnc4)n3n2)C[C@H](C)N1` [compound 4, 6-(cis-3,5-dimethylpiperazin-1-yl)-2-(4-fluorophenyl)-3-pyridazin-4-yl-imidazo[1,2-b]pyridazine], the melting point fell in the range of 197 to 199 °C.

`FCCN1CCN(c2ccc3nc(-c4ccccc4)c(-c4ccnnc4)n3n2)CC1` [compound 7, 6-[4-(2-fluoroethyl)piperazin-1-yl]-2-phenyl-3-pyridazin-4-yl-imidazo[1,2-b]pyridazine] displayed a melting point of 156 to 158 °C.

As for `CC(C)N1CCN(c2ccc3nc(-c4cccc(F)c4)c(-c4ccnnc4)n3n2)CC1` [compound 10, 2-(3-fluorophenyl)-6-(4-isopropylpiperazin-1-yl)-3-pyridazin-4-yl-imidazo[1,2-b]pyridazine], the melting point was 197 to 199 °C.

As to `Cc1cc(C)cc(-c2nc3ccc(N4CCN(C(C)C)CC4)nn3c2-c2ccnnc2)c1` [compound 13, 2-(3,5-dimethylphenyl)-6-(4-isopropylpiperazin-1-yl)-3-pyridazin-4-yl-imidazo[1,2-b]pyridazine], the melting point fell in the range of 183 to 184 °C.

Take `CC(C)(O)CN1CCN(c2ccc3nc(-c4ccc(F)cc4)c(-c4ccnnc4)n3n2)CC1` [compound 20, 1-{4-[2-(4-fluorophenyl)-3-pyridazin-4-yl-imidazo[1,2-b]pyridazin-6-yl]piperazin-1-yl}-2-methylpropan-2-ol]: the melting point was 200 to 202 °C.

As for `CC(C)(O)CCN1CCN(c2ccc3nc(-c4ccc(F)cc4)c(-c4ccnnc4)n3n2)CC1` [compound 21, 4-{4-[2-(4-fluorophenyl)-3-pyridazin-4-yl-imidazo[1,2-b]pyridazin-6-yl]piperazin-1-yl}-2-methylbutan-2-ol], the melting point was 148 to 150 °C. This compound also returned an IC50 in data set [1] of 134 to 166 nM.

Compound `Fc1ccc(-c2nc3ccc(N4C[C@@H]5C[C@H]4CN5)nn3c2-c2ccnnc2)cc1` [compound 23, 6-((1S,4S)-2,5-diazabicyclo[2.2.1]hept-2-yl)-2-(4-fluorophenyl)-3-pyridazin-4-yl-imidazo[1,2-b]pyridazine] had a melting point of 205 to 207 °C.

`OCCN1C[C@@H]2C[C@H]1CN2c1ccc2nc(-c3ccc(F)cc3)c(-c3ccnnc3)n2n1` [compound 24, 2-{5-[2-(4-fluorophenyl)-3-pyridazin-4-yl-imidazo[1,2-b]pyridazin-6-yl]-(1S,4S)-2,5-diazabicyclo[2.2.1]hept-2-yl}-ethanol] registered a melting point of 175 to 177 °C.

For the compound `CC(C)N1C[C@@H]2C[C@H]1CN2c1ccc2nc(-c3ccc(F)cc3)c(-c3ccnnc3)n2n1` [compound 25, 2-(4-fluorophenyl)-6-(5-isopropyl-(1S,4S)-2,5-diazabicyclo[2.2.1]hept-2-yl)-3-pyridazin-4-yl-imidazo[1,2-b]pyridazine], the melting point was in the range of 201 to 203 °C.

`CC(C)N1CC2CN(c3ccc4nc(-c5ccc(F)cc5)c(-c5ccnnc5)n4n3)CC2C1` (stereo not drawn) [compound 28, 2-(4-fluorophenyl)-6-(5-isopropylhexahydropyrrolo[3,4-c]pyrrol-2-(1H)-yl)-3-pyridazin-4-yl-imidazo[1,2-b]pyridazine] came in with an IC50 in data set [1] of 54 to 69 nM.

Take `Fc1ccc(-c2nc3ccc(N4CCC5(CCCNC5)CC4)nn3c2-c2ccnnc2)cc1` [compound 31, 9-[2-(4-fluorophenyl)-3-pyridazin-4-yl-imidazo[1,2-b]pyridazin-6-yl]-2,9-diaza-spiro[5.5]undecane]: the melting point lay within 203 to 205 °C.

`Fc1ccc(-c2nc3ccc(N4CCC5(CC4)CNCCO5)nn3c2-c2ccnnc2)cc1` [compound 32, 9-[2-(4-fluorophenyl)-3-pyridazin-4-yl-imidazo[1,2-b]pyridazin-6-yl]-1-oxa-4,9-diaza-spiro[5.5]undecane] returned a melting point of 212 to 214 °C.

The compound `Fc1ccc(-c2nc3ccc(N4CCC(N5CCCC5)C4)nn3c2-c2ccnnc2)cc1` (stereo not drawn) [compound 33, 6-[1,3]bipyrrolidinyl-1′-yl-2-(4-fluorophenyl)-3-pyridazin-4-yl-imidazo[1,2-b]pyridazine] showed a melting point of 182 to 184 °C.

`Fc1ccc(-c2nc3ccc(N4CCC(N5CCCC5)CC4)nn3c2-c2ccnnc2)cc1` [compound 34, 2-(4-fluorophenyl)-3-pyridazin-4-yl-6-(4-pyrrolidin-1-yl-piperidin-1-yl)-imidazo[1,2-b]pyridazine] gave a melting point of 196 to 198 °C.

Compound `CN1CC2CN(c3ccc4nc(-c5ccccc5)c(-c5ccnnc5)n4n3)CC2C1` (stereo not drawn) [compound 41, 6-(5-methylhexahydropyrrolo[3,4-c]pyrrol-2(1H)-yl)-2-phenyl-3-pyridazin-4-ylimidazo[1,2-b]pyridazine] yielded a melting point of 154 to 157 °C.

Take `CN1CC2CN(c3ccc4nc(-c5cccc(F)c5)c(-c5ccnnc5)n4n3)CC2C1` (stereo not drawn) [compound 42, 2-(3-fluorophenyl)-6-(5-methylhexahydropyrrolo[3,4-c]pyrrol-2(1H)-yl)-3-pyridazin-4-ylimidazo[1,2-b]pyridazine]: the melting point lay in the range of 168 to 170 °C.

As to `Cc1cc(N2CC3CN(C)CC3C2)nn2c(-c3ccnnc3)c(-c3ccc(F)cc3)nc12` (stereo not drawn) [compound 44, 2-(4-fluorophenyl)-8-methyl-6-(5-methylhexahydropyrrolo[3,4-c]pyrrol-2(1H)-yl)-3-pyridazin-4-ylimidazo[1,2-b]pyridazine], the melting point lay in the range of 255 to 257 °C.

For the compound `CN1CC2CN(c3ccc4nc(-c5ccc(F)c(F)c5)c(-c5ccnnc5)n4n3)CC2C1` (stereo not drawn) [compound 45, 2-(3,4-difluorophenyl)-6-(5-methylhexahydropyrrolo[3,4-c]pyrrol-2(1H)-yl)-3-pyridazin-4-ylimidazo[1,2-b]pyridazine], the melting point lay in the range of 186 to 188 °C.
